Results published in ChEMBL document CHEMBL3352500, “Identification and characterization of an anti-pseudomonal dichlorocarbazol derivative displaying anti-biofilm activity” (Bioorg Med Chem Lett, 2014).
Values after ≈ are worked out from the molar mass of the structure shown. Active and inactive are the calls of the source. No cut-off for these calls is given here.

Assays:
Staphylococcus aureus [1] = assay: Antibiofilm activity against Staphylococcus aureus SH1000 after 24 hrs; format: functional
Pseudomonas aeruginosa [2] = assay: Antibacterial activity against Pseudomonas aeruginosa clinical isolate PA1270; format: functional
Pseudomonas aeruginosa [3] = assay: Antibacterial activity against Pseudomonas aeruginosa after 24 hrs by two-fold broth microdilution method; format: functional
Pseudomonas aeruginosa [4] = assay: Antibacterial activity against Pseudomonas aeruginosa YM64 expressing mexAB-oprM::FRT/mexXY::FRT/mexCD-oprJ::FRT/mexEF-oprN::FRT deletion mutant; format: functional
Pseudomonas aeruginosa [5] = assay: Antibacterial activity against ticarcillin/piperacillin/ceftazidime/cefepime-resistant Pseudomonas aeruginosa clinical isolate PA1255; format: functional
[6] = Cytotoxicity against human mesenchymal stem cells assessed as cell viability at 4.63 ug/ml after 2 hrs; format: cell-based; conditions: read-out: Activity
Pseudomonas aeruginosa [7] = assay: Antibacterial activity against Pseudomonas aeruginosa clinical isolate PA1256; format: functional
[8] = test system: Staphylococcus epidermidis; assay: Antibiofilm activity against Staphylococcus epidermidis RP62A after 72 hrs; format: functional
Pseudomonas aeruginosa [9] = assay: Antibiofilm activity against Pseudomonas aeruginosa PA14 after 24 hrs; format: functional
Pseudomonas aeruginosa [10] = assay: Antibacterial activity against ticarcillin-resistant Pseudomonas aeruginosa clinical isolate PA08; format: functional
Pseudomonas aeruginosa [11] = assay: Antibiofilm activity against Pseudomonas aeruginosa on smooth titanium disc at 3.7 ug/ml after 19 hrs by confocal laser scanning microscopy; format: functional, organism-based
Pseudomonas aeruginosa [12] = assay: Antibiofilm activity against Pseudomonas aeruginosa on smooth titanium disc assessed as reduction in total area fraction at 1 to 12 ug/ml after 19 hrs by confocal laser scanning microscopy; format: functional
Pseudomonas aeruginosa [13] = assay: Antibacterial activity against ticarcillin-resistant Pseudomonas aeruginosa clinical isolate PA424; format: functional
Pseudomonas aeruginosa [14] = assay: Antibacterial activity against ticarcillin/cefepime-resistant Pseudomonas aeruginosa clinical isolate PA1250; format: functional
Escherichia coli [15] = assay: Antibiofilm activity against Escherichia coli TG1 after 24 hrs; format: functional
Pseudomonas aeruginosa [16] = assay: Antibacterial activity against ticarcillin-resistant Pseudomonas aeruginosa clinical isolate PA53; format: functional
Pseudomonas aeruginosa [17] = assay: Antibiofilm activity against Pseudomonas aeruginosa on smooth titanium disc assessed as dead cells in biofilm at 12 ug/ml after 19 hrs by confocal laser scanning microscopy relative to control; format: functional, organism-based
Staphylococcus aureus [18] = assay: Antibacterial activity against Staphylococcus aureus SH1000; format: functional
Porphyromonas gingivalis [19] = assay: Antibacterial activity against Porphyromonas gingivalis ATCC 33277; format: functional
[20] = Cytotoxicity against human endothelial cells assessed as effect on tube formation at 4.63 ug/ml after 4 hrs; format: cell-based; conditions: endothelial cell
Pseudomonas aeruginosa [21] = assay: Bactericidal activity against Pseudomonas aeruginosa; format: functional
Pseudomonas aeruginosa [22] = assay: Antibacterial activity against wild-type Pseudomonas aeruginosa YM; format: functional
Pseudomonas aeruginosa [23] = assay: Antibiofilm activity against Pseudomonas aeruginosa assessed as decrease of culturable cells in biofilm at >= 4.63 ug/ml after 24 hrs by plate counting method; format: functional, organism-based
Pseudomonas aeruginosa [24] = assay: Antibacterial activity against ticarcillin/piperacillin-resistant Pseudomonas aeruginosa clinical isolate PA346; format: functional
Pseudomonas aeruginosa [25] = assay: Antibacterial activity against ticarcillin-resistant Pseudomonas aeruginosa clinical isolate PA1271; format: functional
[26] = Cytotoxicity against human endothelial cells at 4.63 ug/ml after 2 hrs; format: cell-based; conditions: endothelial cell
[27] = test system: Staphylococcus epidermidis; assay: Antibacterial activity against Staphylococcus epidermidis RP62A; format: functional
[28] = Cytotoxicity against human osteoblasts assessed as cell viability at 4.63 ug/ml after 2 hrs; format: cell-based, Osteoblast; conditions: read-out: Activity
Escherichia coli [29] = assay: Antibacterial activity against Escherichia coli TG1; format: functional
Pseudomonas aeruginosa [30] = assay: Antibacterial activity against ticarcillin-resistant Pseudomonas aeruginosa clinical isolate PA129; format: functional
Porphyromonas gingivalis [31] = assay: Antibiofilm activity against Porphyromonas gingivalis ATCC 33277 after 72 hrs; format: functional
Pseudomonas aeruginosa [32] = assay: Antibacterial activity against Pseudomonas aeruginosa PA14; format: functional

## CCC(C)NCC(O)Cn1c2ccc(Cl)cc2c2cc(Cl)ccc21 (stereo not drawn)
Staphylococcus aureus [1]
  MBIC: 9.25 µg/mL
Pseudomonas aeruginosa [2]
  MIC: 18.5 µg/mL (≈ 50.6 µM)
Pseudomonas aeruginosa [3]
  MIC: 18.5 µg/mL (≈ 50.6 µM)
Pseudomonas aeruginosa [4]
  MIC: 4.63 µg/mL (≈ 12.7 µM)
Pseudomonas aeruginosa [5]
  MIC: 18.5 µg/mL (≈ 50.6 µM)
[6]
  viability at 2 h, 4.63 ug/ml: > 80%
Pseudomonas aeruginosa [7]
  MIC: 9.25 µg/mL (≈ 25.3 µM)
[8]
  MBIC: 9.25 µg/mL
Pseudomonas aeruginosa [9]
  MBIC: 18.5 µg/mL
Pseudomonas aeruginosa [10]
  MIC: 18.5 µg/mL (≈ 50.6 µM)
Pseudomonas aeruginosa [11]
  Activity: Active
Pseudomonas aeruginosa [12]
  inhibition (INH): 50%
Pseudomonas aeruginosa [13]
  MIC: 18.5 µg/mL (≈ 50.6 µM)
Pseudomonas aeruginosa [14]
  MIC: 18.5 µg/mL (≈ 50.6 µM)
Escherichia coli [15]
  MBIC90: 2.22 µg/mL
Pseudomonas aeruginosa [16]
  MIC: 18.5 µg/mL (≈ 50.6 µM)
Pseudomonas aeruginosa [17]
  Activity: Active
Staphylococcus aureus [18]
  MIC: 9.25 µg/mL (≈ 25.3 µM)
Porphyromonas gingivalis [19]
  MIC: 4.63 µg/mL (≈ 12.7 µM)
[20]
  Activity: Non-toxic
Pseudomonas aeruginosa [21]
  MBC: 18.5 µg/mL (≈ 50.6 µM)
Pseudomonas aeruginosa [22]
  MIC: 18.5 µg/mL (≈ 50.6 µM)
Pseudomonas aeruginosa [23]
  Activity: Active
Pseudomonas aeruginosa [24]
  MIC: 18.5 µg/mL (≈ 50.6 µM)
Pseudomonas aeruginosa [25]
  MIC: 18.5 µg/mL (≈ 50.6 µM)
[26]
  Activity: Toxic
[27]
  MIC: 9.25 µg/mL (≈ 25.3 µM)
[28]
  viability at 2 h, 4.63 ug/ml: > 80%
Escherichia coli [29]
  MIC: 4.63 µg/mL (≈ 12.7 µM)
Pseudomonas aeruginosa [30]
  MIC: 18.5 µg/mL (≈ 50.6 µM)
Porphyromonas gingivalis [31]
  MBIC: 5.11 µg/mL
Pseudomonas aeruginosa [32]
  MIC: 18.5 µg/mL (≈ 50.6 µM)

## CN(CCO)CC(O)Cn1c2ccc(Cl)cc2c2cc(Cl)ccc21 (stereo not drawn)
Pseudomonas aeruginosa [3]
  MIC: 18.5 µg/mL (≈ 50.4 µM)

## GENTAMICIN
Staphylococcus aureus [18]
  MIC: 12.5 µg/mL

## CC1COc2c(N3CCN(C)CC3)c(F)cc3c(=O)c(C(=O)O)cn1c23 (stereo not drawn) [OFLOXACIN]
Escherichia coli [29]
  MIC: 0.1 µg/mL (≈ 0.277 µM)

## O=C(O)c1cn(C2CC2)c2cc(N3CCNCC3)c(F)cc2c1=O [CIPROFLOXACIN]
[27]
  MIC: 1.56 µg/mL (≈ 4.71 µM)

## CCN(CC)CC(O)Cn1c2ccc(Cl)cc2c2cc(Cl)ccc21 (stereo not drawn)
Pseudomonas aeruginosa [3]
  MIC: 37 µg/mL (≈ 101 µM)

## OC(CN1CCCCC1)Cn1c2ccc(Cl)cc2c2cc(Cl)ccc21 (stereo not drawn)
Pseudomonas aeruginosa [3]
  MIC: 74 µg/mL (≈ 196 µM)

## OCCN(CCO)CC(O)Cn1c2ccc(Cl)cc2c2cc(Cl)ccc21 (stereo not drawn)
Pseudomonas aeruginosa [3]
  MIC: > 74 µg/mL

## N=C(NCCCCCCNC(=N)NC(=N)Nc1ccc(Cl)cc1)NC(=N)Nc1ccc(Cl)cc1 [CHLORHEXIDINE]
Porphyromonas gingivalis [19]
  MIC: 4 µg/mL (≈ 7.91 µM)

## CN(C)CC(O)Cn1c2ccc(Br)cc2c2cc(Br)ccc21 (stereo not drawn)
Pseudomonas aeruginosa [3]
  MIC: 18.5 µg/mL (≈ 43.4 µM)

## OC(CNCC1CCCO1)Cn1c2ccc(Cl)cc2c2cc(Cl)ccc21 (stereo not drawn)
Pseudomonas aeruginosa [3]
  MIC: 18.5 µg/mL (≈ 47 µM)

## OCCn1c2ccccc2c2cc(Cl)ccc21
Pseudomonas aeruginosa [3]
  MIC: 18.5 µg/mL (≈ 75.3 µM)
